Here are results for 15 molecules from patent US20040192606A1, “Method of promoting angiogenesis” (priority 1995, published 2004).

Data set [1] concerns THP-1 cells. The data set can be described thus: VEGF protein secretion by THP-1 cells (ELISA of conditioned media). The data set is classed as cell-based, human. The conditions noted are these: for inhibition of relaxin-induced VEGF stimulation: PKA inhibitors used at or above their Ki doses, ELISA, data not shown; for VEGF induction: 17 nM (equivalent molar concentration to relaxin). For orientation: ELISA stands for enzyme-linked immunosorbent assay.

The test system of data set [2] is THP-1 cells. The experiment in a line: cAMP levels in THP-1 cells. The data set is classed as cell-based, human. On the technique in general: Cyclic AMP is a second messenger, typically raised through Gs and lowered through Gi signalling.
For data set [3], the system named is VEGF transcripts in THP-1 cells. The experiment in a line: PCR and Southern blot analysis of steady state VEGF mRNA in THP-1 cells. The data set is classed as cell-based, human.
The nature of data set [4]: Serum concentration of relaxin in ongoing clinical trials. The class given is in vivo, human. As to the method: While human dosage levels for treating depression have yet to be optimized for relaxin, generally, a daily dose is from about […] of body weight per day, preferably about […] μg/kg, and most preferably about 12.0 to 100.0 μg/kg. Generally it is sought to obtain a serum concentration of relaxin approximating or greater than normal circulating levels in pregnancy, i.e., 1.0 ng/ml, such as 0.5 to 50 ng/ml, preferably 1.0 to 20 ng/ml. […] Thus, for administration to a 70 kg person, the dosage range would be about 7.0 μg to 3.5 mg per day, preferably about […] to 2.1 mg per day, and most preferably about […] per day. The amount of relaxin administered will, of course, be dependent on the subject and the severity of the affliction, the manner and schedule of administration and the judgment of the prescribing physician.

Data set [5] has as its system rabbit corneal stroma. The data set can be described thus: Rabbit corneal assay (neo-capillary growth toward implanted hydron disc). The data set is classed as in vivo. As for the experimental part: (§1) In vivo activity for angiogenesis is determined by the rabbit corneal injection protocol and by the matrigel subcutaneous insert vascularization protocol.
Test and control material is mixed with hydron into a 0.1 cc disc (resembling a small contact lens). The disc is implanted into a rabbit corneal stroma micro pocket using appropriate anesthesia for the procedure. After one week, neo-capillary growth toward the disc is measured and scored (0-4) utilizing a standard anatomic grading scale. A score of 0 means no growth. A score of 1 means capillaries (one or two) just entering the corneal stroma from the limbus toward the pocket. A score of 3 means vessels have grown to the base of the implant. A score of 4 means vessels have grown around the implant.

Data set [6] deals with THP-1 cells. The data set can be described thus: Other effects on THP-1 cells (morphology, thymidine uptake, metalloproteinase expression, nitric oxide production). The data set is classed as cell-based, human.
Data set [7] deals with mouse dorsum (matrigel plug). The experiment in a line: Murine matrigel subcutaneous insert vascularization assay. The data set is classed as in vivo. As for the experimental part:
as §1
Matrigel (Collaborative Biomedical, Bedford, Mass.) is a reconstituted basement membrane complex containing primarily laminin and type IV collagen. It is isolated from the Engelbreth-Holm-Swarm (EHS) murine tumor. At room temperature, matrigel is liquid; but when injected subcutaneously into a mouse it reconstitutes as a gel.
Test substance is mixed with matrigel (1%v/v media in 1 cc matrigel) at room temperature and then injected subcutaneously into a mouse dorsum (5 month old female Swiss-Webster). After one week, the mouse is sacrificed and the gel plug(s) harvested. Samples are fixed in buffered formalin, paraffin embedded, sectioned (4 μ) and H&E stained. The samples are scored 1 (positive), 0.5 (indeterminate) or 0 (negative).

Where two headings read alike, the source gives them in different places.

Consider `C[C@]12CC[C@@H]3c4ccc(O)cc4CC[C@H]3[C@@H]1CC[C@@H]2O` [17-β-estradiol], for which the “effect on relaxin VEGF stimulation compared to relaxin alone” value in data set [1] (1 μM, simultaneously with relaxin or 48 hours pretreatment) is listed as “Neither treatment protocol resulted in a difference in VEGF stimulation”.
For the molecule `O=S(=O)(NCCNC/C=C/c1ccc(Br)cc1)c1cccc2cnccc12` [H-89], in data set [1], the “inhibition of relaxin-induced VEGF stimulation” value (“inhibition” below) is reported as “failed to completely inhibit VEGF stimulation”.
`CC(C)Cn1c(=O)n(C)c(=O)c2[nH]cnc21` [IBMX, isobutylmethylxanthing]: the “Net VEGF Expr” value in data set [1] (Exp 1, 50 × 10^−6M, 24 h, net of placebo-treated control, mean ± SEM) turned out to be 154 ± 46 pg/mL; in data set [1] (Exp 2, 50 × 10^−6M, 8 h, net of placebo, mean ± SEM) it was 209 ± 20 pg/mL.
For `CCCCCCOC(=O)[C@]1(O)C[C@@H]2O[C@@]1(C)n1c3ccccc3c3c4c(c5c6ccccc6n2c5c31)C(=O)NC4` [KT5720], in data set [1], the “inhibition” value was “failed to completely inhibit VEGF stimulation”.
As to `CCCCCCCCCCCCCC(=O)O[C@@H]1[C@@H](C)[C@@]2(O)[C@@H](C=C(CO)C[C@]3(O)C(=O)C(C)=C[C@@H]23)[C@@H]2C(C)(C)[C@]12OC(C)=O` [PMA, reference compound], the cAMP levels entry in data set [2] (1 ng/ml, data not shown) is given as “does not increase cAMP levels”. Also, in data set [1] (Exp 5, 1 ng/ml, 8 h, net of placebo, mean ± SEM), the “Net VEGF Expr” value was 342 ± 18 pg/mL.
For the molecule `Nc1ncnc2c1ncn2C1CCCO1` (stereo not shown) [SQ22536], the “inhibition” value in data set [1] is “failed to completely inhibit VEGF stimulation”.
With `C[C@@H]1C[C@@H]([C@H](O)CC2CC(=O)NC(=O)C2)C(=O)[C@@H](C)C1` [cycloheximide, reference compound], in data set [3] (added with recombinant human relaxin (H2)), the “effect on relaxin-induced increase of VEGF transcripts” value is “did not interfere with or amplify this increase”.
For the molecule `CCCC(=O)Nc1ncnc2c1ncn2[C@@H]1O[C@@H]2COP(=O)(O)O[C@H]2[C@H]1OC(=O)CCC` [dbcAMP, Dibutyryl cAMP], the “Net VEGF Expr” value was 488 ± 27 pg/mL in data set [1] (Exp 3, 10^−4M, 8 h, net of placebo, mean ± SEM); 142 ± 26 pg/mL in data set [1] (Exp 3, 10^−5M, 8 h, net of placebo, mean ± SEM); -0- pg/ml in data set [1] (Exp 3, 10^−6M, 8 h, net of placebo).
For the molecule `CCCC(=O)Nc1nc2c(ncn2[C@@H]2O[C@@H]3COP(=O)(O)O[C@H]3[C@H]2OC(=O)CCC)c(=O)[nH]1` [dbcGMP, dibutyryl cGMP], the “Net VEGF Expr” value in data set [1] (Exp 3, 10^−6M-10^−4M (each dose), 8 h, net of placebo) was -0- pg/ml.
On to Cholera toxin, for which the “Net VEGF Expr” value in data set [1] was 1278 ± 106 pg/mL.
Consider “IGF-I: member of the relaxin family (Promega)”, for which the VEGF induction entry in data set [1] is “Neither IGF-I and IGF-II induced VEGF production”.
Same read-out and setting: with “IGF-II: member of the relaxin family (Promega)” the entry was “Neither IGF-I and IGF-II induced VEGF production”.
Consider Pertussis toxin, for which, in data set [1] (Exp 4, 1 μg/ml, 8 h, net of placebo, mean ± SEM), the “Net VEGF Expr” value is listed as -0- pg/ml.
Regarding “insulin: member of the relaxin family, compared at 17 nM”, the “VEGF expression relative to that induced by relaxin” value in data set [1] (17 nM) is “roughly 30%”.
relaxin: in data set [2] (relaxin treatment, dose not given), the cAMP levels result is on record as “causes an increase in cAMP”. In addition, the serum concentration entry in data set [4] (dosage about 6.0 μg/kg, ±0.3) is “about 1.8 ng/ml”; in data set [4] (dosage about 12.0 μg/kg, ±0.6), ~3.6 ng/mL; in data set [4] (dosage about 50 μg/kg, ±1.6), ~11.8 ng/mL. Moreover, in data set [5] (disc in rabbit corneal stroma micro pocket, after one week, n=8, standard error 0.5, placebo 0.6, P 0.08), the “mean score of neo-capillary growth toward the disc (0-4 anatomic grading scale)” value is 1.5. In addition, the “angiogenic activity (conclusion)” value in data set [5] (rabbit corneal assay) and in data set [7] (murine matrigel assay) was “angiogenic” each time. Also, the “time at which increase of VEGF transcripts is detectable” value in data set [3] (10 ng/ml) worked out at 30 min. For the same molecule, the “increase of VEGF121, 165 and 189 PCR bands” value in data set [3] (10 ng/ml, by 2 hours) is “roughly 2 fold”. Moreover, the “intensity of VEGF transcript bands on Southern blot” value in data set [3] (100 ng/ml) is recorded as “intensity of all bands is increased”. The “time course of VEGF in conditioned media” value in data set [1] (1 ng/ml and 100 ng/ml) was “increased in the conditioned media in roughly linear fashion up to at least 72 hours”. Also, the “VEGF protein secretion (dose dependence)” value in data set [1] (0.04-50 ng/ml, 8 hours) is on record as “dose dependent manner”. Further, the “Net VEGF Expr” value in data set [1] (Exp 2, 10 ng/ml, 8 h, net of placebo, mean ± SEM) was found to be 161 ± 19 pg/mL. The “relaxin concentration at which VEGF protein secretion peaks” value in data set [1] (doses 0.04-50 ng/ml, 8 hours) came to 1 ng/mL. Further, the “morphological changes (adherence to plastic, clumping)” value in data set [6] was “no observable morphological changes”. For the same molecule, the “mean score of gel plugs (1 positive, 0.5 indeterminate, 0 negative)” value in data set [7] (subcutaneous matrigel in mouse, after one week, standard error 0.1, control 0.3, P 0.02) is reported as 0.8.
